{"source": "patent JP2015013808A", "about": "“G2/m期停止及び細胞死を誘導するベンゾヒドラジド誘導体” (Kyushu University NUC, priority 2011, dated 2013)", "key": {"[1]": {"system": "human cancer cells [ヒトがん細胞]", "assay": "Growth inhibition / cytotoxicity in cancer cell lines (summary over lines)", "format": "cell-based", "conditions": "for anticancer activity / inhibitory effect on cancer cell lines (in words): 48 h, MTS; for cancer cell selectivity of growth inhibition and cytotoxicity (in words): cancer cells versus normal fibroblasts"}, "[2]": {"system": "HFF2/T cells (normal human fibroblast line immortalized by introduction of human telomerase) [HFF2/T細胞(ヒトテロメラーゼの導入により不死化した正常ヒト線維芽細胞株)]", "assay": "MTS growth inhibition assay, HFF2/T normal fibroblasts", "format": "cell-based", "conditions": "48 h"}, "[3]": {"system": "human cancer cells [ヒトがん細胞]", "assay": "FACS cell cycle analysis (summary, cell line not specified)", "format": "cell-based"}, "[4]": {"system": "HeLa cells (cervical cancer-derived cell line) [HeLa細胞(子宮頸癌由株細胞株)]", "assay": "MTS growth inhibition assay, HeLa", "format": "cell-based, human", "conditions": "48 h"}, "[5]": {"system": "T98G cells (glioblastoma-derived cell line) [T98G細胞(グリオブラストーマ由来細胞株)]", "assay": "MTS growth inhibition assay, T98G", "format": "cell-based, human", "conditions": "48 h"}, "[6]": {"system": "T98G cells [T98G細胞]", "assay": "FACS cell cycle analysis, T98G", "format": "cell-based, human", "conditions": "10 μM, 24 h"}, "[7]": {"system": "H1299 cells (lung cancer-derived cell line) [H1299細胞(肺がん由来細胞株)]", "assay": "MTS growth inhibition assay, H1299", "format": "cell-based, human", "conditions": "48 h"}, "[8]": {"system": "HFF2/T cells [HFF2/T細胞]", "assay": "FACS cell cycle analysis, HFF2/T normal fibroblasts", "format": "cell-based, human", "conditions": "10 μM, 24 h"}, "[9]": {"biological_target": "T1, Cdt1-geminin binding [Cdt1-geminin結合] (Homo sapiens, UniProt O75496+Q9H211)", "T1 construct": "made in house", "T1 sequence (Q9H211 1-546)": "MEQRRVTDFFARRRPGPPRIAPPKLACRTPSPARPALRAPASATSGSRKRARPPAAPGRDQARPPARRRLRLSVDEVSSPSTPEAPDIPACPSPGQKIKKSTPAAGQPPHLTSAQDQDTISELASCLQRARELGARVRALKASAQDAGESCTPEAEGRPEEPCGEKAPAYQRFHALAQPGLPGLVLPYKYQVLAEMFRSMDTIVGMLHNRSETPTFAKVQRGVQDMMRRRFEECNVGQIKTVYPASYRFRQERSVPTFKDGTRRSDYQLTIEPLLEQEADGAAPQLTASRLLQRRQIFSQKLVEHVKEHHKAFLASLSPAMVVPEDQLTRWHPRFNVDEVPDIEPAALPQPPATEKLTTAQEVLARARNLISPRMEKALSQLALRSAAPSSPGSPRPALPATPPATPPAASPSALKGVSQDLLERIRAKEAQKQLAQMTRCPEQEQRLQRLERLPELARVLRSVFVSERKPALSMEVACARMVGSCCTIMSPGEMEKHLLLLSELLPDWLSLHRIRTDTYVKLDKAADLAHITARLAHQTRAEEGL", "T1 sequence (O75496 1-209)": "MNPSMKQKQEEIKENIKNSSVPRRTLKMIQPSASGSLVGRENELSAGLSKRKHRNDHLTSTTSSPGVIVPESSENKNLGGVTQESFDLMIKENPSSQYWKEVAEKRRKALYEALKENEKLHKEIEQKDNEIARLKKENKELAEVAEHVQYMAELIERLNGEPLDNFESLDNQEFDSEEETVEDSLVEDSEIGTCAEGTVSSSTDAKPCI", "assay": "In vitro Cdt1-geminin binding inhibition assay (modified ELISA)"}}, "note": "Read-outs that look alike come from different tables or passages of the source."}
{"smiles": "CCn1c2ccccc2c2cc(/C=N/NC(=O)c3ccc(O)cc3O)ccc21", "note": "[(E)-N'-((9-エチル-9H-カルバゾール-3-イル)メチレン)-2,4-ジヒドロキシベンゾヒドラジド]", "values": [{"measurement": "toxicity toward certain cancer cell lines (in words)", "setting": "[1]; certain cancer cell lines, not specified", "result": "ある種のがん細胞株に対する毒性が低下する"}]}
{"smiles": "CCn1c2ccccc2c2cc(/C=N/NC(=O)c3ccccc3C)ccc21", "note": "[HND-007, (E)-N'-((9-Ethyl-9H-carbazol-3-yl)methylene)-2-methylbenzohydrazide]", "values": [{"measurement": "growth inhibition / toxicity toward normal fibroblasts or normal cells (in words)", "setting": "[2]", "result": "正常線維芽細胞に対しても高い毒性を示す"}, {"measurement": "growth inhibition / toxicity toward normal fibroblasts or normal cells (in words)", "setting": "[2]; listed as 2- methyl体", "result": "正常細胞に対しても高い毒性を示す場合がある"}, {"measurement": "anticancer activity / inhibitory effect on cancer cell lines (in words)", "setting": "[1]; listed as 2- methyl体", "result": "がん細胞株に対する抑制効果を高める"}, {"measurement": "anticancer activity / inhibitory effect on cancer cell lines (in words)", "setting": "[1]; listed as (E)-N'-((9-エチル-9H-カルバゾール-3-イル)メチレン)-2-メチルベンゾヒドラジド", "result": "殺細胞性が高い"}, {"measurement": "cancer cell selectivity of growth inhibition and cytotoxicity (in words)", "setting": "[1]", "result": "選択性は低く"}, {"measurement": "cell cycle phase inhibited", "setting": "[3]", "result": "主にM期の進行阻害を行っているものと予想される"}]}
{"smiles": "CCn1c2ccccc2c2cc(/C=N/NC(=O)c3ccccc3I)ccc21", "note": "[NP-10, (E)-N'-((9-Ethyl-9H-carbazol-3-yl)methylene)-2-iodobenzohydrazide]", "values": [{"measurement": "50% growth inhibitory concentration", "setting": "[4]", "result": "数"}, {"measurement": "50% growth inhibitory concentration", "setting": "[5]", "result": "数"}, {"measurement": "concentration needed for 50% growth inhibition of HFF2/T relative to HeLa", "setting": "[2]; HFF2/T versus HeLa", "result": "~10", "unit": "fold"}, {"measurement": "growth inhibition / toxicity toward normal fibroblasts or normal cells (in words)", "setting": "[2]", "result": "正常線維芽細胞に対する増殖抑制効果は低い"}, {"measurement": "cancer cell selectivity of growth inhibition and cytotoxicity (in words)", "setting": "[1]", "result": "がん細胞選択的に細胞増殖を阻害し、細胞毒性を発揮した"}, {"measurement": "cancer cell selectivity of growth inhibition and cytotoxicity (in words)", "setting": "[1]; listed as 2-iodo体", "result": "がん細胞選択的に細胞増殖を阻害し、細胞毒性を発揮する"}, {"measurement": "cancer cell selectivity of growth inhibition and cytotoxicity (in words)", "setting": "[1]; listed as 2-ヨード体", "result": "がん細胞に対して選択的に毒性を発揮する"}, {"measurement": "concentration that inhibits growth of human cancer cells", "setting": "[1]; human cancer cells, lines not specified", "result": "数"}, {"measurement": "cell death", "setting": "[1]; human cancer cells, several μM", "result": "細胞死"}, {"measurement": "effect on cell cycle", "setting": "[6]", "result": "主にS期で停止"}, {"measurement": "50% growth inhibitory concentration", "setting": "[7]", "result": "数"}, {"measurement": "effect on cell cycle progression", "setting": "[8]", "result": "細胞周期進行に影響を与えなかった"}, {"measurement": "effect on cell cycle progression", "setting": "[8]; listed as 2-iodo体", "result": "正常細胞の細胞周期の進行に影響を与えず"}, {"measurement": "cell cycle phase inhibited", "setting": "[3]", "result": "主にM期の進行阻害"}, {"measurement": "cell cycle phase inhibited", "setting": "[3]; listed as 2-iodo体", "result": "主にM期の進行阻害"}, {"measurement": "Cdt1-geminin binding inhibitory activity (in words)", "setting": "[9]", "result": "Cdt1-geminin結合の阻害活性は示さない"}]}
{"smiles": "CCn1c2ccccc2c2cc(/C=N/NC(=O)c3cccc(I)c3)ccc21", "note": "[NP-13, (E)-N'-((9-Ethyl-9H-carbazol-3-yl)methylene)-3-iodobenzohydrazide]", "values": [{"measurement": "anticancer activity / inhibitory effect on cancer cell lines (in words)", "setting": "[1]", "result": "抗がん活性を失ってしまう"}, {"measurement": "anticancer activity / inhibitory effect on cancer cell lines (in words)", "setting": "[1]; listed as 3-iodo体", "result": "抗がん活性が比較的低く"}]}
{"smiles": "CCn1c2ccccc2c2cc(/C=N/NC(=O)c3ccc(I)cc3)ccc21", "note": "[NP-14, (E)-N'-((9-Ethyl-9H-carbazol-3-yl)methylene)-4-iodobenzohydrazide]", "values": [{"measurement": "growth inhibition / toxicity toward normal fibroblasts or normal cells (in words)", "setting": "[2]", "result": "正常線維芽細胞に対しても高い毒性を示す"}, {"measurement": "growth inhibition / toxicity toward normal fibroblasts or normal cells (in words)", "setting": "[2]; listed as 4-iodo体", "result": "正常線維芽細胞に対しても高い毒性を示しうる"}, {"measurement": "anticancer activity / inhibitory effect on cancer cell lines (in words)", "setting": "[1]", "result": "NP-10と同等あるいはより高い抗がん活性を示す"}, {"measurement": "anticancer activity / inhibitory effect on cancer cell lines (in words)", "setting": "[1]; listed as 4-iodo体", "result": "2-iodo体と同等、あるいはより高い抗がん活性を示す"}, {"measurement": "anticancer activity / inhibitory effect on cancer cell lines (in words)", "setting": "[1]; listed as 4-ヨード体", "result": "抗がん活性も示した"}, {"measurement": "cancer cell selectivity of growth inhibition and cytotoxicity (in words)", "setting": "[1]", "result": "がん細胞選択性は低下していた"}, {"measurement": "Cdt1-geminin binding inhibitory activity (in words)", "setting": "[9]; listed as 4-iodo体", "result": "Cdt1-gemininの試験管内での結合を阻害しうる"}, {"measurement": "Cdt1-geminin binding inhibitory activity (in words)", "setting": "[9]; listed as 4-ヨード体", "result": "Cdt1-geminin結合阻害活性を持ち"}, {"measurement": "IC50", "setting": "[9]; read-out: 50% binding inhibitory concentration, Cdt1-geminin", "result": "~40", "unit": "µM"}]}
{"smiles": "CCn1c2ccccc2c2cc(C=O)ccc21", "note": "[Y-R1, N-ethylcarbazole-3-carboxaldehyde, reference compound]", "values": [{"measurement": "cancer cell selectivity of growth inhibition and cytotoxicity (in words)", "setting": "[1]", "result": "そのような効果は認められなかった"}]}
{"smiles": "NNC(=O)c1ccccc1I", "note": "[Y-R2, 2-iodobenzohydrazide, reference compound]", "values": [{"measurement": "cancer cell selectivity of growth inhibition and cytotoxicity (in words)", "setting": "[1]", "result": "そのような効果は認められなかった"}]}
